Assays:
[1] = test system: carrageenan footedema; assay: Carrageenan Footedema Suppression Test; assay type: in vivo, SD rats; conditions: oral; paw volume three hours after carrageenan administration
Description: The carrageenin footedema suppression test was conducted according to the method of Winter et al. (J. Pharm. Exp. Ther., Vol.141, 369 (1963)). The test samples suspended in Tween 80 were administered orally to SD rats (6 rats per 1 group) in an amount of 1 ml per 100 g of the body weight, while only the solvent was administered in the same manner as above as a control. One hour after the administration, 1% carrageenan physiological saline was injected subcutaneously to the rats in the plantar area of the right hind paw. Three hours after the carrageenan administration, the paw volumes were measured and the edematization rate (%) was calculated with Formula 1 and then edematization suppression rate (%) was calculated with Formula 2.
Edematization rate (%)=((paw volume after carrageenan injection- paw volume before carrageenan injection)/(paw volume before carrageenan injection)×100 Formula: 1
Edematization suppression rate (%)=((edematization rate of control-
edematization rate of test samples)/edematization rate of […]

[2] = biological target: T1, Human COX-2 (Homo sapiens, UniProt P35354); assay: Human COX-2 Inhibitory Activity Test (LPS-induced PGE2 in blood); assay type: cell-based; conditions: for IC50: human blood, LPS, PGE2, IC50 from Hill Plot; for COX-1/COX-2: ratio of IC50 COX-1 to COX-2
T1 construct: endogenous in cells; host or cells: heparinised whole blood of a healthy human donor pretreated with aspirin, stimulated with LPS (own knowledge: COX-2 is induced in monocytes)
T1 sequence (P35354 18-604): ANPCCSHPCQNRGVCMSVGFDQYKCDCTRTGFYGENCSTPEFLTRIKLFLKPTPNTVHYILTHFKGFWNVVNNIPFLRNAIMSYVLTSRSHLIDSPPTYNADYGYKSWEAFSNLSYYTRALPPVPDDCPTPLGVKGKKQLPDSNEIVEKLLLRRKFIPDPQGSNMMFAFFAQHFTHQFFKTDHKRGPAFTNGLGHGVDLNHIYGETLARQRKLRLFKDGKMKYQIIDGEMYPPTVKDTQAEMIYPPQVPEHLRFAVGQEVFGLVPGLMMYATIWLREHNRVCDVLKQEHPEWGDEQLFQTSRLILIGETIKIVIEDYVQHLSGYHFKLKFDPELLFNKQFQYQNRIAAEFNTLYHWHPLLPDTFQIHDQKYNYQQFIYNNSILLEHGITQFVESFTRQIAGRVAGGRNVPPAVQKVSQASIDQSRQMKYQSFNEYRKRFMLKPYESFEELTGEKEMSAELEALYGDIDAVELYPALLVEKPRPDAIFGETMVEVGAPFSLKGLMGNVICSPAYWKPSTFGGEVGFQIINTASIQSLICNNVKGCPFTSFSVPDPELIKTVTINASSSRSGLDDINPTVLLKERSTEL
Description: (§1) COX-1 and COX-2 activities were measured according to the method of Patrignani et al. (J. Pharm. Exp. Ther. Vol. 271, 1705 (1994)).
(2) COX-2 activity was measured in the following procedure. To blood collected from a healthy normal who had taken 330 mg of aspirin 48 hours before the blood collection in order to inhibit the COX-1 activity, 10 unit/ml of sodium heparin was added, and then pipetted into glass test tubes by 1 ml. 10 μg/ml of Lipopolysaccharide (LPS) was added thereto and the plasma obtained by the specified operation was stored at -40° C. until the measurement for the amount of prostaglandin E2 (PGE2). Test samples containing the test samples were treated in the same manner of operation as described above.
(4) The measurement for the PGE2 content was conducted in the following procedure. In a part of 96 well plate coated with goat anti-mouse antibody, 2 wells were alloted respectively to a blank well, Non-specific Binding (NSB) well, Maximum Binding (B0) well, standard wells at seven concentrations of PGE2 (1000 pg/ml) in doubling dilution ranging from 1000-15.6 pg/ml. The rest of the wells were used for the sample measurement. EIA buffer was added to the NSB wells (100 μl) and to the B0 wells (50 μl), respectively. 50 μl of each of the standard dilution was added in an order from thinner to thicker concentrations. Each of the samples was added to the rest of the wells in an amount of 50 μl. Then, 50 μl of PGE2 tracer was added to each of the wells except for blank wells. Further, 50 μl PGE2 monoclonal antibody was added to each of the wells except for the NSB wells and blank wells, then the well plate was covered with a plastic film and the reaction continued at room temperature for 18 hours. When the reaction was terminated, the wells were washed 5 times with a wash buffer. 200 μl of Elman's reagent was added to each of the wells, and then the well plate was covered with a plastic film and developed for 60 minutes in a dark place. The absorbance at 405 nm was measured by an Immuno Reader (NJ-2000, manufactured by Nippon Intermed Co., Ltd.). From the measurement result, %B/B0 was calculated and, applying it to the approximation formula of Hill Plot, the concentration of the samples was determined to be 40 times concentration. The dilution was conducted with an EIA buffer throughout the Test Example 3.

[3] = biological target: T2, Human COX-1 (Homo sapiens, UniProt P23219); assay: Human COX-1 Inhibitory Activity Test (TXB2 in blood); assay type: cell-based; conditions: IC50 from Hill Plot
T2 construct: endogenous in cells; host or cells: whole blood of a healthy human donor (own knowledge: TXB2 of clotting blood comes from platelet COX-1)
Description: as §1
(1) COX-1 activity was measured in the following procedure. […] The serum obtained by 10 minutes of centrifugation at 2000 rpm at 4° C. was stored at -40° C. until the measurement of the amount of thromboxane B2 (TXB2). The test samples, which had been dissolved in ethanol and diluted to the specified concentrations, were previously dispensed into the glass test tubes, and the solvent was evaporated to dryness by Centrifugal Vaporizer (CVE-200D, manufactured by Tokyo Rika Mfg. Co., Ltd.) so that the test samples were added to the plasma.
(3) The measurement for the TXB2 content was conducted in the following procedure. In a part of a 96 well plate coated with anti-rabbit IgG antibody, 2 wells were allotted respectively to blank well, Non-specific Binding (NSB) well, Maximum Binding (B0) well, standard wells at 7 concentrations of TXB2 (1000 pg/ml) in doubling dilution ranging from 1000-15.6 pg/ml. The rest of the wells were used for the measurement of the samples. EIA buffer was added to the NSB wells (100 μl ) and B0 wells (50 μl), respectively. 50 μl of each of the standard dilution was added in an order from thinner to thicker concentrations. Each of the samples was added to the rest of the wells in an amount of 50 μl. Then, 50 μl of TXB2 tracer was added to each of the wells except for the blank wells. Further, 50 μl of TXB2 antibody was added to each of the wells except for the NSB wells and blank wells, then the well plate was covered with a plastic film and the reaction continued for 18 hours at room temperature. When the reaction was terminated, the wells were washed 5 times with a wash buffer. 200 μl of Elman's reagent was added to each of the wells and then the well plate was covered with a plastic film and developed for 60 minutes in a dark place. The absorbance at 405 nm was measured by an Immuno Reader (NJ-2000, manufactured by Nippon Intermed Co., Ltd.). From the measurement result, %B/B0 was calculated and, applying it to the approximation formula of Hill Plot, the concentration of the samples was determined to be 2,000 times concentration. […]

T2 sequence (P23219 24-599): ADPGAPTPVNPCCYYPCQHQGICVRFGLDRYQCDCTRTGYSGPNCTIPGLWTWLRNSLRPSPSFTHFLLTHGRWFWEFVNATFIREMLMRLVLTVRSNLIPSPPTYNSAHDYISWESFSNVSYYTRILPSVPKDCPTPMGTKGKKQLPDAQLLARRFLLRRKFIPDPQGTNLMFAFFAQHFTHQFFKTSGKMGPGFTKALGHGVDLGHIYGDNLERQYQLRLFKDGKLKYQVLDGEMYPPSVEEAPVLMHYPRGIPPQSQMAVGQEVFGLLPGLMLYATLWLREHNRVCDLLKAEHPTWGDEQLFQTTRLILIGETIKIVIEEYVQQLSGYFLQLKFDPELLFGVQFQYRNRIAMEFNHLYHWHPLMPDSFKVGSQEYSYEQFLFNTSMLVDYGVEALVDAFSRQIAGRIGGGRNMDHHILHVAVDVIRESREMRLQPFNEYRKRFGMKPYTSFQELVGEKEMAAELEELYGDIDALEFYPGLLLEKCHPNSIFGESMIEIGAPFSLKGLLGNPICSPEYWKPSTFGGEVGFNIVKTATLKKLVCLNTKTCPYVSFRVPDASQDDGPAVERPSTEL

Structure (SMILES)	IC50 [2] [nM]	COX-1/COX-2 [2]	IC50 [3] [nM]	Edematization Suppression rate [1] [%]
Cc1cc(-c2ccc(F)cc2F)c(-c2ccc(S(C)(=O)=O)cc2)[nH]1 [Preparation Example 7, 4-(2,4-difluorophenyl)-2-methyl-5-(4-methylsulfonylphenyl)-1H-pyrrole]	144	212	30600	34.5
CS(=O)(=O)c1ccc(-c2[nH]c(CCC(=O)O)cc2-c2ccc(F)cc2)cc1 [Preparation Example 50, 4-(4-fluorophenyl)-5-(4-methylsulfonylphenyl)-1H-pyrrole-2-propionic acid]	454	> 220	–	28.9
Cc1cc(-c2cccc(N(C)C)c2)c(-c2ccc(S(C)(=O)=O)cc2)[nH]1 [Preparation Example 23, 4-(3-dimethylaminophenyl)-2-methyl-5-(4-methylsulfonylphenyl)-1H-pyrrole]	346	> 289	–	–
Cc1cc(-c2ccc(N(C)C)c(C)c2)c(-c2ccc(S(C)(=O)=O)cc2)[nH]1 [Preparation Example 32, 4-(4-N,N-dimethylamino-3-methylphenyl)-2-methyl-5-(4-methylsulfonylphenyl)-1H-pyrrole]	442	> 226	–	–
Cc1cc(-c2ccc(N(C)C)cc2)c(-c2ccc(S(C)(=O)=O)cc2)[nH]1 [Preparation Example 19, 4-(4-dimethylaminophenyl)-2-methyl-5-(4-methylsulfonylphenyl)-1H-pyrrole]	747	> 134	–	43.2
Cc1cc(C#Cc2ccccc2)c(-c2ccc(S(C)(=O)=O)cc2)[nH]1 [Preparation Example 48, 4-phenylethynyl-2-methyl-5-(4-methylsulfonylphenyl)-1H-pyrrole]	300	> 339	–	40.1
CSc1ccc(-c2cc(C)[nH]c2-c2ccc(S(C)(=O)=O)cc2)cc1 [Preparation Example 18, 4-(4-methylthiophenyl)-2-methyl-5-(4-methylsulfonylphenyl)-1H-pyrrole]	123	102	12600	48.9

More lines, main results first:

IC50 [2] [nM]	COX-1/COX-2 [2]	IC50 [3] [nM]	Structure (SMILES)	Edematization Suppression rate [1] [%]
110	458	50400	Cc1cc(-c2ccc(F)c(F)c2F)c(-c2ccc(S(C)(=O)=O)cc2)[nH]1 [Preparation Example 52, 4-(2,3,4-trifluorophenyl)-2-methyl-5-(4-methylsulfonylphenyl)-1H-pyrrole]	–
274	307	84000	Cc1cc(-c2ccc(F)c(Cl)c2)c(-c2ccc(S(C)(=O)=O)cc2)[nH]1 [Preparation Example 10, 4-(3-chloro-4-fluorophenyl)-2-methyl-5-(4-methylsulfonylphenyl)-1H-pyrrole]	25.7
219	> 457	26700	Cc1cc(-c2ccc(F)c(F)c2)c(-c2ccc(S(C)(=O)=O)cc2)[nH]1 [Preparation Example 8, 4-(3,4-difluorophenyl)-2-methyl-5-(4-methylsulfonylphenyl)-1H-pyrrole]	26.7
162	617	–	Cc1cc(F)cc(-c2cc(C)[nH]c2-c2ccc(S(C)(=O)=O)cc2)c1 [Preparation Example 53, 4-(3-fluoro-5-methylphenyl)-2-methyl-5-(4-methylsulfonylphenyl)-1H-pyrrole]	–
4820	< 0.1	1	COc1ccc(-c2cc(C)[nH]c2-c2ccc(OC)cc2)cc1 [Control compound (a), 4,5-bis(4-methoxyphenyl)-2-methyl-1H-pyrrole, reference compound]	23.4
164	> 610	> 100000	Cc1cc(-c2cccc(Cl)c2)c(-c2ccc(S(C)(=O)=O)cc2)[nH]1 [Preparation Example 4, 4-(3-chlorophenyl)-2-methyl-5-(4-methylsulfonylphenyl)-1H-pyrrole]	30.1
310	> 323	–	COc1ccc(-c2cc(C)[nH]c2-c2ccc(S(C)(=O)=O)cc2)cc1Cl [Preparation Example 28, 4-(3-chloro-4-methoxyphenyl)-2-methyl-5-(4-methylsulfonylphenyl)-1H-pyrrole]	–
129	304	39200	Cc1cccc(-c2cc(C)[nH]c2-c2ccc(S(C)(=O)=O)cc2)c1 [Preparation Example 21, 4-(3-methylphenyl)-2-methyl-5-(4-methylsulfonylphenyl)-1H-pyrrole]	31.6
84	118	9900	CCc1cc(-c2ccc(F)cc2)c(-c2ccc(S(C)(=O)=O)cc2)[nH]1 [Preparation Example 11, 2-ethyl-4-(4-fluorophenyl)-5-(4-methylsulfonylphenyl)-1H-pyrrole]	–
